Where “and” joins values, the source holds several entries; their conditions need not be identical. Equal entries are not always repeated. Where two headings read alike, the source gives them in different places.
Experiments:
[1] = test system: AasS; assay: In vitro enzymatic activity of AasS (acyl-ACP formation, conformationally-sensitive urea PAGE, ImageJ semi-quantitation); type: biochemical, Vibrio harveyi
[2] = test system: AasS-expressing E. coli ΔbioC strain; assay: AasS-based bypass of biotin synthesis, bacterial viability on M9 agar; type: cell-based, Escherichia coli; conditions: M9 agar with E-C7 as sole carbon source; 0, 50, 100, 500 μM tested
Excerpt: Fig 4 Integrated evidence for the inhibition of AasS action with E-C7 fatty acid by C10-AMS compound. A. Schematic diagram of AasS-catalyzed ligation of E-C7 with holo-ACP recipient to produce E-C7-ACP. […] A representative photograph of three independent trials was given. C. Relatively-quantitative analysis (for the inhibitory efficacy of C10-AMS on AasS-catalyzed E-C7-ACP production. As for AasS reaction (panel B), unlike the three components that are at constant levels, namely (i) AasS (31.25 nM), (ii) E-C7 (600 μM), and (iii) ACP (3 μg), C10-AMS inhibitor was supplemented at varied ratio in relative to the AasS enzyme (ranging from 0:1, 25:1, 50:1, 100:1, 200:1, 300:1, 400:1, to 500:1). The ImageJ software was applied to measure the relative percentage (%) of E-C7 fatty acylation in each AasS reaction. The resultant graphs were plotted from three independent experiments, in which the output was expressed as means ± SD (standard deviations). D. Schematic diagram for C10-AMS inhibition of AasS-based bypass of biotin requirement by the E. coli ΔbioC biotin auxotroph on the non-permissive condition. […] Log-phase cultures in a series of 10-fold dilution (shown in panel on right hand), were spotted on the x-gal-containing M9 agar plates supplemented with C10-AMS inhibitor at varied levels (0, 50, 100, to 500 μM). The addition of x-gal substrate enabled the occurrence of blue colonies for better photographing, and viable colonies were highlighted with yellow arrows.
Given that AasS ligates E-C7 fatty acid with holo-ACP, giving E-C7-ACP, an alternative precursor for bacterial biotin synthesis, plasmid-borne aasS expression in ΔbioC biotin auxotroph strain is assumed to overcome the requirement of the primary BioC step [58, 83]. Apart from its WT, three single mutants of AasS (D411A, R426A, and K432A) were examined in vivo, of which the compromised activity is presumably proportional to the varied viability of the ΔbioC reporter strains on the non-permissive M9 growth condition. To test its inhibitory effect, the C10-AMS inhibitor in a series of dilution was supplemented. […]

CCCCCCCCCC(=O)NS(=O)(=O)OC[C@H]1O[C@@H](n2cnc3c(N)ncnc32)[C@H](O)[C@@H]1O [C10-AMS]
inhibition of C10 fatty acylation, Average (S1E Fig, second block; order of addition not printed) [1]: 64.1924% and 78.0145% and 84.8528% and 86.8699%
inhibition of C10 fatty acylation, Average (S1E Fig, third block; order of addition not printed) [1]: 82.6351% and 89.1845% and 93.1119% and 91.664%
Ki ([1]; C10 substrate fixed at 80 μM, AasS 3 nM, semi-quantitative gel assay, read-out: inhibition constant (Ki) of C10-AMS vs AasS): ~620 nM and 620 nM and ~600 nM
Ki ([1]; E-C7 600 μM, AasS 31.25 nM, read-out: Ki for E-C7 acyl substrate): ~2950 nM and 2950 nM
Ki ([1]; condition 1#, C10 80 μM, AasS 3 nM, read-out: Ki, order-of-addition experiment): 670 nM
Ki ([1]; condition 2#, C10 80 μM, AasS 3 nM, read-out: Ki, order-of-addition experiment): 1370 nM
C10-AMS level that markedly impaired AasS-based bypass of biotin synthesis [2]: over 100 μM

Source: article PMC11271967, “An inhibitory mechanism of AasS, an exogenous fatty acid scavenger: Implications for re-sensitization of FAS II antimicrobials” (PLOS Pathogens, 2024)
